System: Nematospiroides dubius
Assay: Oral activity against experimental infections of Nematospiroides dubius in the mouse (worm numbers of treated vs untreated control animals)
Format: in vivo
Settings: calculated from worm numbers of treated and control animals; for inhibition in vivo at 200 mg/kg / inhibition in vivo at 100 mg/kg: Heligmosomoides polygyrus, po
Procedure: The oral activity of the following compounds, against experimental infections of Nematospiroides dubius in the mouse, was calculated from a comparison of the worm numbers of treated and control (untreated) animals.

Row | Compound | inhibition in vivo at 200 mg/kg (Dose 200 mg/kg (p.o.)) | also measured
1 | CSC(=Nc1cccc(C2CN3CCSC3=N2)c1)Nc1ccccc1 (stereo not shown) [Example 13] | 99% | 
2 | CSC(=Nc1cccc(C2CN3CCSC3=N2)c1)Nc1ccc(F)cc1 (stereo not shown) [Example 14, S-Methyl-N-[4-fluorophenyl]-N'-[3-(6-{2,3,5,6-tetra-hydroimidazo [2,1-b]thiazolyl})phenyl]isothiourea] | 100% | 
3 | CSC(=Nc1cccc(C2CN3CCSC3=N2)c1)Nc1cccc(F)c1 (stereo not shown) [Example 15, S-Methyl-N-[3-fluorophenyl]-N'-[3-(6-{2,3,5,6-tetra-hydroimidazo[2,1-b]thiazolyl})phenyl]isothiourea] | 100% | inhibition in vivo at 100 mg/kg (Dose 100 mg/kg (p.o.)): 100%
4 | CSC(=Nc1cccc(C2CN3CCSC3=N2)c1)Nc1ccc(Cl)cc1 (stereo not shown) [Example 17, S-Methyl-N-[4-chlorophenyl]-N'-[3-(6-{2,3,5,6-tetra-hydroimidazo[2,1-b]thiazolyl})phenyl]isothiourea] | 88% | 
5 | CSC(=Nc1cccc(C2CN3CCSC3=N2)c1)Nc1ccc(C)cc1 (stereo not shown) [Example 19, S-Methyl-N-[4-methylphe_nyl]-N'-[3-(6-{2,3,5,6-tetra-hydroimidazo[2,1-b]thiazolyl})phenyl]isothiourea] | 0% | 
6 | CSC(=Nc1cccc(C2CN3CCSC3=N2)c1)Nc1cccc(Cl)c1 (stereo not shown) [Example 20] | 100% | inhibition in vivo at 100 mg/kg (Dose 100 mg/kg (p.o.)): 87%
7 | CCSC(=Nc1cccc(C2CN3CCSC3=N2)c1)Nc1ccccc1 (stereo not shown) [Example 22, S-Ethyl-N-phenyl-N'-[3-(6{2,3,5,6-tetrahydroimidazo-[2,1-b]thiazolyl})phenyl]isothiourea] | 92% | 
8 | CSC(=Nc1cccc(C2CN3CCSC3=N2)c1)Nc1ccc(C)c(C)c1 (stereo not shown) [Example 56] | 0% | 
9 | CSC(=Nc1cccc(C2CN3CCSC3=N2)c1)Nc1cccc(C)c1 (stereo not shown) [Example 57] | 100% | inhibition in vivo at 100 mg/kg (Dose 100 mg/kg (p.o.)): 40%
10 | CSC(=Nc1cccc(C2CN3CCSC3=N2)c1)Nc1cccc([N+](=O)[O-])c1 (stereo not shown) [Example 58] | 95% | inhibition in vivo at 100 mg/kg (Dose 100 mg/kg (p.o.)): 95%
11 | CSC(=Nc1cccc(C2CN3CCSC3=N2)c1)NCc1ccccc1 (stereo not shown) [Example 75] | 54% | 
12 | CSC(=Nc1cccc(C2CN3CCSC3=N2)c1)NC1CCCCC1 (stereo not shown) [Example 76] | 15% | 
13 | COc1ccc(NC(=Nc2cccc(C3CN4CCSC4=N3)c2)SC)cc1 (stereo not shown) [p-C6H4OCH3] | 59% | 
14 | S-Methyl-N-[3,4-dichlorophenyl]-N'-[3-(6{2,3,5,6-tetra- hydroimidazo[2,1-b]thiazolyl}) phenyl]isothiourea [Example 18] |  | Activity % (Dose 200 mg/kg (p.o.)): 34%
15 | S-Methyl-N-[4-acetylphenyl]-N'-[3-(6-{2,3,5,6-tetra- hydroimidazo-[2,1-b]thiazolyl})phenyl]isothiourea [Example 25] |  | Activity % (Dose 100 mg/kg (p.o.)): 93%; Activity % (Dose 200 mg/kg (p.o.)): 100%
16 | S-Methyl-N-[4-cyanophenyl]-N'-[3-(6-{2,3.5,6-tetra- hydroimidazo[2,1-b]thiazolyl})phenyl]isothiourea [Example 24] |  | Activity % (Dose 100 mg/kg (p.o.)): 99%; Activity % (Dose 200 mg/kg (p.o.)): 100%
17 | S-Methyl-N-[4-nitrophenyl]-N'-[3-(6-{2,3,5,6-tetra- hydroimidaza[2,1-b]thiazolyl})phenyl]isothiourea [Example 16] |  | Activity % (Dose 50 mg/kg (p.o.)): 95%; Activity % (Dose 100 mg/kg (p.o.)): 100%; Activity % (Dose 200 mg/kg (p.o.)): 100%

Source: EP0076622A1, “Anthelmintics” (BEECHAM GROUP PLC, priority 1981, dated 1983)
